Measurements: patent US7902373B2 (Pfizer Inc, priority 2006, dated 2011)

Target: human recombinant H-PGDS (Homo sapiens, UniProt O60760)
Assay: Fluorescence intensity h-PGDS TBA enzyme assay
Format: biochemical
Settings: Examples up to 622 (and 3a, 3b)

Chain of human recombinant H-PGDS (O60760 whole entry): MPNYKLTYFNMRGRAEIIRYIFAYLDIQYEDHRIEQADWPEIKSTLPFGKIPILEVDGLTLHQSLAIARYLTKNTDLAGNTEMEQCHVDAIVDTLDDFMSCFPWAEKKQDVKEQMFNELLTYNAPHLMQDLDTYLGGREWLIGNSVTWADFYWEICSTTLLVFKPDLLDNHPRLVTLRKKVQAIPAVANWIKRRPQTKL

| SMILES | IC50 [nM] |
| --- | --- |
| Cc1nc(N2CCC(NC(=O)c3ccc(-c4cccc(F)c4)nc3)CC2)ccc1C#N [Example 175, N-[1-(5-Cyano-6-methylpyridin-2-yl)piperidin-4-yl]-6-(3-fluorophenyl)nicotinamide] | 5.4 |
| Cc1nc(N)c2nc(N3CCC(NC(=O)c4ccc(-c5cccc(F)c5)nc4)CC3)cnc2n1 [Example 176, N-[1-(4-Amino-2-methylpteridin-6-yl)piperidin-4-yl]-6-(3-fluorophenyl)nicotinamide] | 0.759 |
| COc1cccc(-c2ccnc(N3CCC(NC(=O)c4ccc(-c5cccc(F)c5)nc4)CC3)n2)c1 [Example 177, 6-(3-Fluorophenyl)-N-{1-[4-(3-methoxyphenyl)pyrimidin-2-yl]piperidin-4-yl}nicotinamide] | 68.4 |
| COc1ccc2ncnc(N3CCC(NC(=O)c4ccc(-c5cccc(F)c5)nc4)CC3)c2c1 [Example 178, 6-(3-Fluorophenyl)-N-[1-(6-methoxyquinazolin-4-yl)piperidin-4-yl]nicotinamide] | 0.735 |
| CCOc1cc(CN2CCC(NC(=O)c3ccc(-c4cccc(F)c4)nc3)CC2)ccc1O [Example 179, N-(1-(3-Ethoxy-4-hydroxybenzyl)piperidin-4-yl)-6-(3-fluorophenyl)nicotinamide] | 2.26 |
| Cc1cn(CCN2CCC(NC(=O)c3ccc(-c4cccc(F)c4)nc3)CC2)c(=O)[nH]c1=O [Example 180, 6-(3-Fluorophenyl)-N-{1-[2-(5-methyl-2,4-dioxo-34-dihydropyrimidin-1(2H)-yl)ethyl]piperidin-4-yl}nicotinamide] | 0.372 |
| O=C(NC1CCN(Cc2cccc(-c3ncccn3)c2)CC1)c1ccc(-c2cccc(F)c2)nc1 [Example 181, 6-(3-Fluorophenyl)-N-[1-(3-pyrimidin-2-ylbenzyl)piperidin-4-yl]nicotinamide] | 3.4 |
| O=C(NC1CCN(Cc2c[nH]nc2-c2ccccc2)CC1)c1ccc(-c2cccc(F)c2)nc1 [Example 182, 6-(3-Fluorophenyl)-N-{1-[(3-phenyl-1H-pyrazol-4-yl)methyl]piperidin-4-yl}nicotinamide] | 0.424 |
| O=C(NC1CCN(Cc2c[nH]c3cc(F)ccc23)CC1)c1ccc(-c2cccc(F)c2)nc1 [Example 183, N-{1-[(6-Fluoro-1H-indol-3-yl)methyl]piperidin-4-yl}-6-(3-fluorophenyl)nicotinamide] | 1.12 |
| COc1cc(CN2CCC(NC(=O)c3ccc(-c4cccc(F)c4)nc3)CC2)ccc1OC(C)C [Example 184, 6-(3-Fluorophenyl)-N-[1-(4-isopropoxy-3-methoxybenzyl)piperidin-4-yl]nicotinamide] | 3.67 |
| CCn1cc(CN2CCC(NC(=O)c3ccc(-c4cccc(F)c4)nc3)CC2)cn1 [Example 185, N-{1-[(1-Ethyl-1H-pyrazol-4-yl)methyl]piperidin-4-yl}-6-(3-fluorophenyl)nicotinamide] | 11 |
| O=C(NC1CCN(CC2CCC=CO2)CC1)c1ccc(-c2cccc(F)c2)nc1 (stereo not shown) [Example 186, N-[1-(3,4-Dihydro-2H-pyran-2-ylmethyl)piperidin-4-yl]-6-(3-fluorophenyl)nicotinamide] | 1.79 |
| O=C(NC1CCN(Cc2c[nH]nc2-c2ccc(F)cc2)CC1)c1ccc(-c2cccc(F)c2)nc1 [Example 187, 6-(3-Fluorophenyl)-N-(1-{[3-(4-fluorophenyl)-1H-pyrazol-4-yl]methyl}piperidin-4-yl)nicotinamide] | 2.59 |
| O=C(NC1CCN(Cc2cccc(-c3ccccn3)c2)CC1)c1ccc(-c2cccc(F)c2)nc1 [Example 188, 6-(3-Fluorophenyl)-N-[1-(3-pyridin-2-ylbenzyl)piperidin-4-yl]nicotinamide] | 2.25 |
| O=C(NC1CCN(Cc2ccnc3ccccc23)CC1)c1ccc(-c2cccc(F)c2)nc1 [Example 189, 6-(3-Fluorophenyl)-N-[1-(quinolin-4-ylmethyl)piperidin-4-yl]nicotinamide] | 0.502 |
| O=C(NC1CCN(Cc2c[nH]cn2)CC1)c1ccc(-c2cccc(F)c2)nc1 [Example 190, 6-(3-Fluorophenyl)-N-[1-(1H-imidazol-5-ylmethyl)piperidin-4-yl]nicotinamide] | 1.83 |
| Cn1cc(Cl)c(CN2CCC(NC(=O)c3ccc(-c4cccc(F)c4)nc3)CC2)n1 [Example 191, N-{1-[(4-Chloro-1-methyl-1H-pyrazol-3-yl)methyl]piperidin-4-yl}-6-(3-fluorophenyl)nicotinamide] | 0.171 |
| COc1cc(CN2CCC(NC(=O)c3ccc(-c4cccc(F)c4)nc3)CC2)ccc1F [Example 192, N-[1-(4-Fluoro-3-methoxybenzyl)piperidin-4-yl]-6-(3-fluorophenyl)nicotinamide] | 0.701 |
| O=C(NC1CCN(Cc2ccc(F)c(F)c2)CC1)c1ccc(-c2cccc(F)c2)nc1 [Example 193, N-[1-(3,4-difluorobenzyl)piperidin-4-yl]-6-(3-fluorophenyl)nicotinamide] | 0.768 |
| O=C(CN1CCC(NC(=O)c2ccc(-c3cccc(F)c3)nc2)CC1)c1ccccc1 [Example 194, 6-(3-Fluorophenyl)-N-[1-(2-oxo-2-phenylethyl)piperidin-4-yl]nicotinamide] | 3.5 |

| SMILES | IC50 [nM] |
| --- | --- |
| Cn1nc(-c2ccccc2)c(CN2CCC(NC(=O)c3ccc(-c4cccc(F)c4)nc3)CC2)c1Cl [Example 195, N-{1-[(5-Chloro-1-methyl-3-phenyl-1H-pyrazol-4-yl)methyl]piperidin-4-yl}-6-(3-fluorophenyl)nicotinamide] | 0.194 |
| Cn1cc(CN2CCC(NC(=O)c3ccc(-c4cccc(F)c4)nc3)CC2)cn1 [Example 196, 6-(3-Fluorophenyl)-N-{1-[(1-methyl-1H-pyrazol-4-yl)methyl]piperidin-4-yl}nicotinamide] | 1.35 |
| O=C(NC1CCN(Cc2cccc3cccnc23)CC1)c1ccc(-c2cccc(F)c2)nc1 [Example 197, 6-(3-Fluorophenyl)-N-[1-(quinolin-8-ylmethyl)piperidin-4-yl]nicotinamide] | 0.578 |
| O=C(NC1CCN(Cc2cccc(-c3cnccn3)c2)CC1)c1ccc(-c2cccc(F)c2)nc1 [Example 198, 6-(3-Fluorophenyl)-N-[1-(3-pyrazin-2-ylbenzyl)piperidin-4-yl]nicotinamide] | 1.04 |
| CCCCc1nc(CN2CCC(NC(=O)c3ccc(-c4cccc(F)c4)nc3)CC2)c[nH]1 [Example 199, N-{1-[(2-Butyl-1H-imidazol-4-yl)methyl]piperidin-4-yl}-6-(3-fluorophenyl)nicotinamide] | 2.7 |
| O=C(NC1CCN(Cc2ccc3c(c2)OCCCO3)CC1)c1ccc(-c2cccc(F)c2)nc1 [Example 200, N-[1-(3,4-Dihydro-2H-15-benzodioxepin-7-ylmethyl)piperidin-4-yl]-6-(3-fluorophenyl)nicotinamide] | 1.61 |
| O=C(NC1CCN(Cc2ccc(-c3ccccn3)cc2)CC1)c1ccc(-c2cccc(F)c2)nc1 [Example 201, 6-(3-Fluorophenyl)-N-[1-(4-pyridin-2-ylbenzyl)piperidin-4-yl]nicotinamide] | 1.93 |
| Cc1ccc(CN2CCC(NC(=O)c3ccc(-c4cccc(F)c4)nc3)CC2)cc1F [Example 202, N-[1-(3-Fluoro-4-methylbenzyl)piperidin-4-yl]-6-(3-fluorophenyl)nicotinamide] | 1.17 |
| CC(C)(C)OC(=O)NC1(CN2CCC(NC(=O)c3ccc(-c4cccc(F)c4)nc3)CC2)CC1 [Example 203, tert-Butyl(1-{[4-({[6-(3-fluorophenyl)pyridin-3-yl]carbonyl}amino)piperidin-1-yl]methyl}cyclopropyl)carbamate] | 2.17 |
| COc1ccc(CN2CCC(NC(=O)c3ccc(-c4cccc(F)c4)nc3)CC2)cc1Cl [Example 204, N-[1-(3-Chloro-4-methoxybenzyl)piperidin-4-yl]-6-(3-fluorophenyl)nicotinamide] | 0.067 |
| COc1ccc(OC)c(CN2CCC(NC(=O)c3ccc(-c4cccc(F)c4)nc3)CC2)c1 [Example 205, N-[1-(2,5-Dimethoxybenzyl)piperidin-4-yl]-6-(3-fluorophenyl)nicotinamide] | 0.238 |
| CC(C)Oc1cccc(CN2CCC(NC(=O)c3ccc(-c4cccc(F)c4)nc3)CC2)c1 [Example 206, 6-(3-Fluorophenyl)-N-[1-(3-isopropoxybenzyl)piperidin-4-yl]nicotinamide] | 1.84 |
| Cn1c(CN2CCC(NC(=O)c3ccc(-c4cccc(F)c4)nc3)CC2)cc2ccccc21 [Example 207, 6-(3-Fluorophenyl)-N-{1-[(1-methyl-1H-indol-2-yl)methyl]piperidin-4-yl}nicotinamide] | 1.59 |
| CCc1ncc(CN2CCC(NC(=O)c3ccc(-c4cccc(F)c4)nc3)CC2)[nH]1 [Example 208, N-{1-[(2-Ethyl-1H-imidazol-5-yl)methyl]piperidin-4-yl}-6-(3-fluorophenyl)nicotinamide] | 5.98 |
| Cc1nn(C(C)(C)C)c(C)c1CN1CCC(NC(=O)c2ccc(-c3cccc(F)c3)nc2)CC1 [Example 209, N-{1-[(1-tert-Butyl-3,5-dimethyl-1H-pyrazol-4-yl)methyl]piperidin-4-yl}-6-(3-fluorophenyl)nicotinamide] | 1.37 |
| O=C(NC1CCN(Cc2ccc(-n3cccn3)cc2)CC1)c1ccc(-c2cccc(F)c2)nc1 [Example 210, 6-(3-Fluorophenyl)-N-{1-[4-(1H-pyrazol-1-yl)benzyl]piperidin-4-yl}nicotinamide] | 0.46 |
| COc1cccc(F)c1CN1CCC(NC(=O)c2ccc(-c3cccc(F)c3)nc2)CC1 [Example 211, N-[1-(2-Fluoro-6-methoxybenzyl)piperidin-4-yl]-6-(3-fluorophenyl)nicotinamide] | 0.453 |
| COc1ccc(CC2CC(NC(=O)c3ccc(-c4cccc(F)c4)nc3)CCN2)cc1OC (stereo not shown) [Example 212, N-[2-(3,4-Dimethoxybenzyl)piperidin-4-yl]-6-(3-fluorophenyl)nicotinamide] | 1.4 |
| N#Cc1ccccc1CN1CCC(NC(=O)c2ccc(-c3cccc(F)c3)nc2)CC1 [Example 213, N-[1-(2-Cyanobenzyl)piperidin-4-yl]-6-(3-fluorophenyl)nicotinamide] | 0.469 |
| CN(C)CCCOc1ccc(CN2CCC(NC(=O)c3ccc(-c4cccc(F)c4)nc3)CC2)cc1 [Example 214, N-(1-{4-[3-(Dimethylamino)propoxy]benzyl}piperidin-4-yl)-6-(3-fluorophenyl)nicotinamide] | 5.55 |
